# Source: patent publication US11673892B2, “Bicyclic compounds for use as RIP1 kinase inhibitors” (Genentech, Inc., priority 2017, dated 2023)
# Target: T1, human RIP1 kinase domain (2-375) (Homo sapiens, UniProt Q13546)
# T1 construct: Purified human RIP1 kinase domain (2-375) (50 nM); made in house; host or cells: baculovirus-infected insect cells
# T1 sequence (Q13546 2-375): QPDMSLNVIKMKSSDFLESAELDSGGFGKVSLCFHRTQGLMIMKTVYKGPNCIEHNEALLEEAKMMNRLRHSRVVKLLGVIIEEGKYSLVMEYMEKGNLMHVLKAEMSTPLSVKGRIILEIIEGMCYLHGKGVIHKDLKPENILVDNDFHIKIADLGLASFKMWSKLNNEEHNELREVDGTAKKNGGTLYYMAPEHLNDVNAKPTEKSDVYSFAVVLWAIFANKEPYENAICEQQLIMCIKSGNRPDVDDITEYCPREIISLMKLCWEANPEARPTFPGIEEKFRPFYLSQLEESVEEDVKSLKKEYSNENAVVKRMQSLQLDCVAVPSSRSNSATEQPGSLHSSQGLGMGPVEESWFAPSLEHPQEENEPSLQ
# Assay: RIP1 kinase inhibition biochemical assay (Transcreener ADP, fluorescence polarization)
# Settings: Ki app (Morrison tight-binding fit); 50 nM enzyme, 50 uM ATP, 2 hours incubation
# Experimental: RIP1 Kinase Inhibition Assays (Biochemical Assay)
# The compounds of the present invention were tested for their capacity to inhibit RIP1K activity as described below.
# The ability of the receptor interacting protein kinase (RIPK1) to catalyze the hydrolysis of adenosine-5′-triphosphate (ATP) is monitored using the Transcreener ADP (adenosine-5′-diphosphate) assay (BellBrook Labs). Purified human RIP1 kinase domain (2-375) (50 nM) derived from a baculovirus-infected insect cell expression system is incubated with test compounds for 2 hours in 50 mM Hepes buffer (pH 7.5) containing 30 mM MgCl2, 1 mM dithiothreitol, 50 uM ATP, 0.002% Brij-35, and 0.5% dimethyl sulfoxide (DMSO). Reactions are quenched by the addition of 1× Bell Brooks Stop buffer B (20 mM Hepes (ph7.5), 40 mM ethylenediaminetetraacetic acid and 0.02% Brij-35) containing an additional 12 mM EDTA and 55 ug/mL ADP2 antibody and 4 nM ADP-AlexaFluor® 633 tracer. The tracer bound to the antibody is displaced by the ADP generated during the RIP1K reaction, which causes a decrease in fluorescence polarization that is measured by laser excitation at 633 nm with a FP microplate reader M1000. Fractional activity was plotted against test article concentration. Using Genedata Screener software (Genedata; Basel, Switzerland), the data were fit to the tight-binding apparent inhibition constant (Ki^app) Morrison equation [Williams, J. W. and Morrison, J. F. (1979) The kinetics of reversible tight-binding inhibition. Methods Enzymol 63: 437-67]. The following equation was used to calculate fractional activity and Ki^app:
# [formula] where [E]T and [I]T are the total concentrations of active enzyme and test article, respectively.
# Exemplary compounds of the present invention are provided in Table 1 along with their physiochemical characterization and in vitro RIP1 kinase inhibitory activity data. “Method” in the first column of each table refers to the synthetic method(s) used to prepare each compound as shown in the Examples above. In certain examples, chiral column retention times (min) are provided for certain stereoisomers. Unless otherwise specified, the stereochemistry shown in each structure represents relative configuration of a single stereoisomer, and absolute configuration (i.e., “R” and/or “S”) is arbitrarily assigned. In some embodiments, where the Method is described to include the separation of stereoisomers, a single stereoisomer of a compound of Table 1 is provided.
row,SMILES,Ki
1,"CCCc1nc2n(n1)[C@H](c1ccccc1F)CC2 (single isomer, unassigned) [Example 26]",114 nM
2,"FC(F)CCc1nc2n(n1)[C@H](c1ccccc1)C[C@@H]2F (single isomer, unassigned) [Example 29]",22 nM
3,CCC(O)c1nc2n(n1)[C@H](c1ccccc1)C[C@@H]2F (some centres unmarked) [Example 1],406 nM
4,"CC(C)(C)C(F)(F)c1nc2n(n1)C(c1ccccc1)CC2F (racemic) [Example 9, Cis-2-(1,1-difluoro-2,2-dimethyl-propyl)-7-fluoro-5-phenyl-6,7-dihydro-5H-pyrrolo[1,2-b][1,2,4]triazole]",68 nM
5,"N#Cc1cnn(-c2nc3n(n2)[C@H](c2ccccc2)C[C@@H]3F)c1 (single isomer, unassigned) [Example 54]",41 nM
6,"CC1(C)CC1c1nc2n(n1)[C@H](c1ccccc1)C[C@@H]2F (stereo partly drawn) [Example 30, (5S,7S)-2-(2,2-dimethylcyclopropyl)-7-fluoro-5-phenyl-6,7-dihydro-H-pyrrolo[1,2-b][1,2,4]triazole]",81 nM
7,"F[C@H]1C[C@@H](c2ccccc2)n2nc([C@H](F)C3CC3)nc21 (single isomer, unassigned) [Example 107]",3.5 nM
8,"[2H]C(c1nc2n(n1)[C@H](c1ccccc1)C[C@@H]2F)C1CC1 (stereo partly drawn) [Example 101, (5S,7S)-2-[cyclopropyl(deuterio)methyl]-7-fluoro-5-phenyl-6,7-dihydro-5H-pyrrolo[1,2-b][1,2,4]triazole]",9 nM
9,"CC(F)(F)C(O)c1nc2n(n1)[C@H](c1ccccc1)C[C@@H]2F (stereo partly drawn) [Example 117, 2,2-difluoro-1-[(5S,7S)-7-fluoro-5-phenyl-6,7-dihydro-5H-pyrrolo[1,2-b][1,2,4]triazol-2-yl]propan-1-ol]",420 nM
10,"Cn1cc(/C=C/c2nc3n(n2)[C@H](c2ccccc2)C[C@@H]3F)cn1 (single isomer, unassigned) [Example 49]",1200 nM
11,"F[C@H](c1nc2n(n1)[C@H](c1ccccc1)C[C@@H]2F)C12CC(C1)C2 (single isomer, unassigned) [Example 46]",840 nM
12,"CC(C)(C#N)c1nc2n(n1)[C@H](c1ccccc1)C[C@@H]2F (racemic) [Example 103, 2-[rac-(5S,7S)-7-fluoro-5-phenyl-6,7-dihydro-5H-pyrrolo[1,2-b][1,2,4]triazol-2-yl]-2-methyl-propanenitrile]",220 nM
13,"Cc1c(C#N)cnn1-c1nc2n(n1)[C@H](c1ccccc1)C[C@@H]2F (single isomer, unassigned) [Example 93]",5 nM
14,"O=Cc1cnn(-c2nc3n(n2)[C@H](c2ccccc2)C[C@@H]3F)c1 [Example 40, 1-[(5S,7S)-7-fluoro-5-phenyl-6,7-dihydro-5H-pyrrolo[1,2-b][1,2,4]triazol-2-yl]pyrazole-4-carbaldehyde]",52 nM
15,"CC[C@H](F)c1nc2n(n1)[C@H](c1ccccc1)C[C@@H]2F (racemic) [Example 8, rac-(5S,7S)-7-fluoro-5-phenyl-2-[rac-(1S)-1-fluoropropyl]-6,7-dihydro-5H-pyrrolo[1,2-b][1,2,4]triazole]",14 nM
16,"F[C@H]1C[C@@H](c2ccccc2)n2nc(-n3cc(-c4ccncn4)cn3)nc21 (single isomer, unassigned) [Example 41]",260 nM
17,"CCC(C)(F)c1nc2n(n1)C(c1ccccc1)CC2F [Example 6, Cis-(5S,7S)-2-(1-fluoro-1-methyl-propyl)-7-fluoro-5-phenyl-6,7-dihydro-5H-pyrrolo[1,2-b][1,2,4]triazole]",69 nM
18,"Cc1ccc2c(c1)nnn2-c1nc2n(n1)[C@H](c1ccccc1)C[C@@H]2F (racemic) [Example 88, 5-methyl-1-[rac-(5S,7S)-7-fluoro-5-phenyl-6,7-dihydro-5H-pyrrolo[1,2-b][1,2,4]triazol-2-yl]benzotriazole]",45 nM
19,"Cn1ccn(-c2nc3n(n2)[C@H](c2ccccc2)C[C@@H]3F)c1=O (single isomer, unassigned) [Example 71]",820 nM
20,"F[C@H]1C[C@@H](c2ccccc2)n2nc(C(F)(F)C3CC3)nc21 (single isomer, unassigned) [Example 13]",3 nM
